These results are taken from US7371539B2 (priority 2003, dated 2008).

Entries after “also recorded” stand apart in the source; their conditions may differ.

The test system of assay [1] is T1, Tor-His3 with purified 26S proteasomes from strain Rpn10-FPR1.
T1 construct: made in house; host or cells: reporter: E. coli DH5αPRO (PROTet.133 vector)
Briefly: In vitro degradation assay with purified 26S proteasomes and purified reporter. Type of assay: biochemical, S. cerevisiae. Particulars: PS-341 100 μM, rapamycin 1 μM. The text has this: Whole, functional 26S proteasomes have been previously affinity-purified for use in biochemical assays (Leggett et al. (2002) Mol. Cell 10:495). The same procedure was used to isolate proteasomes from strain Rpn10-FPR1. HA epitope-tagged versions of Tor-His3 and TorS1972R-His3 were purified from a bacterial expression system and then mixed with the proteasomes, with or without rapamycin. Samples were extracted at regular intervals and reporter degradation was monitored by Western analysis (FIG. 5A). […] Once again, proteolysis of Tor-His3 could be halted upon the addition of the proteasome inhibitor PS-341.
26S proteasomes were affinity purified from strains Pre10-FPR1 and Rpn10 FPR1 using the Rpn11-TEV-ProA tag described previously (Leggett et al. (2002) Mol. Cell 10:495). Cells were grown in YPD, harvested, resuspended in 50 mM Tris-HCl [pH 8], 1 mM EDTA and lysed by French press. Lysates was centrifuged at 15,000×g for 25 minutes, filtered and incubated with IgG resin (ICN) for 1 hr at 4° C. Resin was collected in a column, washed with 100 bed volumes of 50 mM Tris-HCl [pH 8], 50 mM NaCl, 1 mM EDTA buffer and equilibrated with TEV-protease buffer (50 mM Tris-HCl [pH 7.5], 1 mM EDTA, 1 mM DTT). […] The integrity of the 26S complexes and presence of Pre10-FPR1 and Rpn10-FPR1 tagged subunits was analyzed by Coomassie staining, SDS-PAGE and immunodetection. […]

The test system of another assay is Tor-His3 reporter. The assay is described as follows: Western assay of reporter degradation in liquid culture after cycloheximide (in vivo). Type of assay: cell-based, S. cerevisiae. Particulars: PS-341 200 μM; Δpdr5 strains Pre10-FPR1 and Rpn10-FPR1. As to the method:
The aforementioned growth assay was a convenient tool for isolating strains to further explore DTL. […] To address this point, degradation of the reporters was directly measured. Strains Pre10-FPR1 and Rpn10-FPR1 were singly transformed with plasmids that expressed hemagglutinin (HA) epitope-tagged versions of Tor-His3 and TorS1972R-His3. The transformants were grown in liquid culture to early log phase, whereupon cycloheximide was added to halt protein translation. Each culture was then split in two and rapamycin was added to one. Samples were collected at various times and whole-cell protein extracts were generated and used for Western analysis (FIGS. 4A-4H). […] These experiments confirm that the growth deficient phenotype seen on histidine-dropout media was due to the degradation of the Tor-His3 reporter and that the 26S proteasome is necessary for this to occur.
In both assays, rapamycin was added to a final concentration of 1 μM, cycloheximide was added to a final concentration of 30 ng/ml and PS-341 was added to a final concentration of 200 μM. For liquid cultures, samples were extracted at fixed time intervals (0, 30, 60, 90 minutes) and whole cell extracts were made. 25 μg of total protein was used from each sample, resolved by SDS-PAGE and transferred to PVDF membranes. […]

Regarding `CC(C)C[C@H](NC(=O)[C@H](Cc1ccccc1)NC(=O)c1cnccn1)B(O)O` [PS-341], the “effect on proteolysis of Tor-His3 in vitro” value in assay [1] is recorded as “halted”. The “effect on degradation of Tor-His3 in the presence of rapamycin” value with Tor-His3 reporter is reported as “prevented Tor-His3 from degrading; also recorded: halted degradation of Tor-His3”.
